Data from ChEMBL document CHEMBL5537128, “Discovery of LWY713 as a potent and selective FLT3 PROTAC degrader with in vivo activity against acute myeloid leukemia” (Eur J Med Chem, 2024).
Activity calls are given as the source filed them. No cut-off for these calls is given here.

What was measured:
MV4-11 [1] = experiment: Antiproliferative activity against human MV4-11 cells assessed as inhibition of cell proliferation incubated for 72 hrs by CCK8 assay; assay type: functional, cell-based; conditions: MV4-11, 72 h
[2] = target: Tyrosine-protein kinase receptor UFO (Homo sapiens) (UniProt P30530); experiment: Induction of AXL degradation in human MDA-MB-231 cells at 1 to 10 nM measured upto 20 hrs by immunoblotting analysis; assay type: cell-based; conditions: dose 1-10 nM
Tyrosine-protein kinase receptor UFO (Homo sapiens), sequence (P30530 whole entry): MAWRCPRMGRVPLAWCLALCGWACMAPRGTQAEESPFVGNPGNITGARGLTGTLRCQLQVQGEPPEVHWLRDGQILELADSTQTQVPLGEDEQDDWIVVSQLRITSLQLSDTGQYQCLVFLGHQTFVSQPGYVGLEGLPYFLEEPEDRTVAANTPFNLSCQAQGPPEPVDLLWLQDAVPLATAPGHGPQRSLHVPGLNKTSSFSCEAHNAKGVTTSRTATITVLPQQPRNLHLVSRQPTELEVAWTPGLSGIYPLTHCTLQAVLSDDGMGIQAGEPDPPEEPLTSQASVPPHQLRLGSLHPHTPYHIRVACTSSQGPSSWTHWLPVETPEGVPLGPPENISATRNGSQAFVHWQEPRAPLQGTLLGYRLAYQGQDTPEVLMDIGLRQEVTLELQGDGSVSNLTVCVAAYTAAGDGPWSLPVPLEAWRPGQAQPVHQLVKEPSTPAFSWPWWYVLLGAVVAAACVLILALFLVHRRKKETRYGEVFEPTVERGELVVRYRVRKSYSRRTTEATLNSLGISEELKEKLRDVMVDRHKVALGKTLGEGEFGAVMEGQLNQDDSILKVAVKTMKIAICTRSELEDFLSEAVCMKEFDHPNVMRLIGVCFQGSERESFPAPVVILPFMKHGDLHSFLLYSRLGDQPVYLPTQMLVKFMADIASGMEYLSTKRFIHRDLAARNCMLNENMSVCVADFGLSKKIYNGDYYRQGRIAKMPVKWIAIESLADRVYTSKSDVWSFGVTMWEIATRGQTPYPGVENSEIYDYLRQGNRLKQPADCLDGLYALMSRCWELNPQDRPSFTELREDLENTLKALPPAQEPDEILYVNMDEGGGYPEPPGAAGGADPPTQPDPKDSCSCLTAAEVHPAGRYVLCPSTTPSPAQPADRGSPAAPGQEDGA

MV4-11 [3] = experiment: Inhibition of JAK/STAT5 signaling pathway in human MV4-11 cells assessed as reduction in STAT5 phosphorylation incubated for 24 hrs by immunoblotting analysis; assay type: cell-based; conditions: dose 0.08-50 nM
MV4-11 [4] = experiment: Induction of apoptosis in human MV4-11 cells assessed as early apoptotic cells at 10 nM incubated for 48 hrs by Annexin V/7-AAD staining based flow cytometric analysis relative to control; assay type: functional
[5] = target: T1, Protein cereblon/Receptor-type tyrosine-protein kinase FLT3 (Homo sapiens, UniProt P36888+Q96SW2); experiment: PROTAC activity at CRBN/FLT3 in human MV4-11 cells harboring FLT3 ITD mutation assessed as induction of FLT3 degradation at 1 nM incubated for 6 hrs in presence of MLN4924 by immunoblotting analysis; assay type: cell-based
Target sequence in this assay (P36888 27-993 limits assumed): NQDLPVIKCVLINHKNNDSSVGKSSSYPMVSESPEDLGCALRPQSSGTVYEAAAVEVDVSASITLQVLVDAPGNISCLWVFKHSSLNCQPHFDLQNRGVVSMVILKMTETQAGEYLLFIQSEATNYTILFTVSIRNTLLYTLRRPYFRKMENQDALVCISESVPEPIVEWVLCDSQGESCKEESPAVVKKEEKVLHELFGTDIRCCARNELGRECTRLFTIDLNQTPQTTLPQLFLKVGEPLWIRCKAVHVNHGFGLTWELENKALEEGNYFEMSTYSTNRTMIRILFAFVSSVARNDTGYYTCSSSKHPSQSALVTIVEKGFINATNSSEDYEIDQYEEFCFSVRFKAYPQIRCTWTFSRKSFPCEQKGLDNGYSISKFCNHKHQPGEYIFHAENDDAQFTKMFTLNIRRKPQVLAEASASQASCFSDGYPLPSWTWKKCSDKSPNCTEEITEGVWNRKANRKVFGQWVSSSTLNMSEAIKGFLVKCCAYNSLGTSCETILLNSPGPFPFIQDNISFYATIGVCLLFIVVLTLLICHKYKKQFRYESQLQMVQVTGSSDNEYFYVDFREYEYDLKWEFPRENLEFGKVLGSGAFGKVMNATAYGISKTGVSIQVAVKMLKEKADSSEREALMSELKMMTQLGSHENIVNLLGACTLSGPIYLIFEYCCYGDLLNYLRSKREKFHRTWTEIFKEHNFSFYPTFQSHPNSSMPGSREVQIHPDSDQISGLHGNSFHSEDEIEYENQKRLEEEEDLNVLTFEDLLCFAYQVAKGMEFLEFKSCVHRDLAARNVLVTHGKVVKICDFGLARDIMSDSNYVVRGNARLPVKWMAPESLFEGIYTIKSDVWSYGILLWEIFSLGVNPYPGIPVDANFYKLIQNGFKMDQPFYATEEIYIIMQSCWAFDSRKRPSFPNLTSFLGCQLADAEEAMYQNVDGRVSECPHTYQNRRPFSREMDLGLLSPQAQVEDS
Target sequence in this assay (Q96SW2 whole entry partner): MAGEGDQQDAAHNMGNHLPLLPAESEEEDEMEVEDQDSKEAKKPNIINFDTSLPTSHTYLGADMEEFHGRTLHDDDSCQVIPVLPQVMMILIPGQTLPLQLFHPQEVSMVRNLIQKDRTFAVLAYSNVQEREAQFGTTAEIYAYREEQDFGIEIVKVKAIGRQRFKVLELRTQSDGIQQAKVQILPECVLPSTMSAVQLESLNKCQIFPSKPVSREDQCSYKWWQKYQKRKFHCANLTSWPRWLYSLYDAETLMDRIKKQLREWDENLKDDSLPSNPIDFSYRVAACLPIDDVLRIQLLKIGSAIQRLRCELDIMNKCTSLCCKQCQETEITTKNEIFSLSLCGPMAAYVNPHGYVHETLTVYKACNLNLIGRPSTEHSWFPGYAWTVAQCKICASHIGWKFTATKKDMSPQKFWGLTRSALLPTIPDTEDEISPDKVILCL

[6] = target: T1, Protein cereblon/Receptor-type tyrosine-protein kinase FLT3; experiment: PROTAC activity at CRBN/FLT3 in human MV4-11 cells harboring FLT3 ITD mutation assessed as induction of FLT3 degradation at 1 nM incubated for 6 hrs in presence of gilteritinib by immunoblotting analysis; assay type: cell-based
Target sequence in this assay (P36888 27-993 limits assumed): as the sequence (P36888 27-993 limits assumed) above
Target sequence in this assay (Q96SW2 whole entry partner): as the sequence (Q96SW2 whole entry partner) above

MV4-11 [7] = experiment: Induction of apoptosis in human MV4-11 cells assessed as late apoptotic cells at 10 nM incubated for 48 hrs by Annexin V/7-AAD staining based flow cytometric analysis relative to control; assay type: functional
MV4-11 [8] = experiment: Antitumor activity against human MV4-11 cells xenografted in NOD/SCID mouse assessed as reduction in tumor volume at 6 mg/kg, ip administered once a day for 21 days; assay type: functional, organism-based; conditions: time 21.0 day
[9] = target: T1, Protein cereblon/Receptor-type tyrosine-protein kinase FLT3; experiment: PROTAC activity at CRBN/FLT3 in human MV4-11 cells harboring FLT3-ITD mutation assessed as reduction in FLT3 phosphorylation incubated for 24 hrs by immunoblotting analysis; assay type: cell-based; conditions: dose 0.08-50 nM
Target sequence in this assay (P36888 27-993 limits assumed): as the sequence (P36888 27-993 limits assumed) above
Target sequence in this assay (Q96SW2 whole entry partner): as the sequence (Q96SW2 whole entry partner) above

MV4-11 [10] = experiment: Induction of cell cycle arrest at G0/G1 phase in human MV4-11 cells assessed as S phase cells at 2 nM incubated for 24 hrs by PI staining based flow cytometric analysis relative to control; assay type: functional
MV4-11 [11] = experiment: Induction of cell cycle arrest at G0/G1 phase in human MV4-11 cells assessed as G2/M phase cells at 2 nM incubated for 24 hrs by PI staining based flow cytometric analysis relative to control; assay type: functional
MV4-11 [12] = experiment: Induction of apoptosis in human MV4-11 cells incubated for 48 hrs by Annexin V/7-AAD staining based flow cytometric analysis; assay type: functional, cell-based; conditions: dose 0.016-10 nM
[13] = target: T1, Protein cereblon/Receptor-type tyrosine-protein kinase FLT3; experiment: PROTAC activity at CRBN/FLT3 in human MV4-11 cells harboring FLT3-ITD mutation assessed as induction of FLT3 degradation at 1 nM incubated for 2 to 20 hrs by Immunoblotting analysis; assay type: cell-based; conditions: time 2-20 hrs
Target sequence in this assay (P36888 27-993 limits assumed): as the sequence (P36888 27-993 limits assumed) above
Target sequence in this assay (Q96SW2 whole entry partner): as the sequence (Q96SW2 whole entry partner) above

MV4-11 [14] = experiment: Inhibition of PI3K/AKT signaling pathway in human MV4-11 cells assessed as reduction in AKT phosphorylation incubated for 24 hrs by immunoblotting analysis; assay type: cell-based; conditions: dose 0.08-50 nM
MV4-11 [15] = experiment: Induction of cell cycle arrest at G0/G1 phase in human MV4-11 cells assessed as sub-G0/G1 phase cells at 0.4 nM incubated for 24 hrs by PI staining based flow cytometric analysis relative to control; assay type: functional
[16] = target: T1, Protein cereblon/Receptor-type tyrosine-protein kinase FLT3; experiment: PROTAC activity at CRBN/FLT3 in human MV4-11 cells harboring FLT3 ITD mutation assessed as induction of FLT3 degradation at 1 nM incubated for 6 hrs in presence of lenalidomide by Immunoblotting analysis; assay type: cell-based
Target sequence in this assay (P36888 27-993 limits assumed): as the sequence (P36888 27-993 limits assumed) above
Target sequence in this assay (Q96SW2 whole entry partner): as the sequence (Q96SW2 whole entry partner) above

MV4-11 [17] = experiment: Induction of cell cycle arrest at G0/G1 phase in human MV4-11 cells assessed as S phase cells at 0.4 nM incubated for 24 hrs by PI staining based flow cytometric analysis relative to control; assay type: functional
[18] = target: Leukocyte tyrosine kinase receptor (Homo sapiens) (UniProt P29376); experiment: Induction of LTK degradation in human Raji cells at 1 to 10 nM measured upto 24 hrs by immunoblotting analysis; assay type: cell-based; conditions: dose 1-10 nM
Leukocyte tyrosine kinase receptor (Homo sapiens), sequence (P29376 whole entry): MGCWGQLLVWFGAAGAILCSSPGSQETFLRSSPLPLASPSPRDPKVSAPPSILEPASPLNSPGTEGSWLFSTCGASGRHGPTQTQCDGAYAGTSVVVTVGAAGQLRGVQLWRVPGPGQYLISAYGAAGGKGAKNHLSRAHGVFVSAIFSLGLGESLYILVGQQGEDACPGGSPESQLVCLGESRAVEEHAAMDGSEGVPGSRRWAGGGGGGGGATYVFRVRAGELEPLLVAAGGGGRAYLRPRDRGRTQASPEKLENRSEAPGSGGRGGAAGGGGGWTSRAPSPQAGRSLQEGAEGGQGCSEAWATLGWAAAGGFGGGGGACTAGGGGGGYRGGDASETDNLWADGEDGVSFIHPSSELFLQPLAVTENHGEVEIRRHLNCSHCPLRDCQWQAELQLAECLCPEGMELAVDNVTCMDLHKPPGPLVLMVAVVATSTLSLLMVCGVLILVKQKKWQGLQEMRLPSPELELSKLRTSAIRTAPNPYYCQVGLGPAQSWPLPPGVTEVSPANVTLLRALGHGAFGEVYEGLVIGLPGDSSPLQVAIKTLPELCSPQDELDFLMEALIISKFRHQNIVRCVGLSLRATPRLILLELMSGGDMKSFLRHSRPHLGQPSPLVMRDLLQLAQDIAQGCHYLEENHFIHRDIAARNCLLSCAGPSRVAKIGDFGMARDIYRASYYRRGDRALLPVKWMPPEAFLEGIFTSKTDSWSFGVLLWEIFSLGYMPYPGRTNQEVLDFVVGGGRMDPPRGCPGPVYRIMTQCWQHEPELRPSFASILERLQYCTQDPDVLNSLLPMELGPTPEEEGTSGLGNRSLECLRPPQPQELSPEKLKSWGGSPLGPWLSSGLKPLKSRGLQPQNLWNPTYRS

[19] = target: ALK tyrosine kinase receptor (Homo sapiens) (UniProt Q9UM73); experiment: Induction of ALK degradation in human Raji cells at 1 to 10 nM measured upto 24 hrs by immunoblotting analysis; assay type: cell-based; conditions: dose 1-10 nM
[20] = target: T1, Protein cereblon/Receptor-type tyrosine-protein kinase FLT3; experiment: PROTAC activity at CRBN/FLT3 in human MV4-11 cells harboring FLT3 ITD mutation assessed as induction of FLT3 degradation at 1 nM incubated for 6 hrs in presence of MG132 by immunoblotting analysis; assay type: cell-based
Target sequence in this assay (P36888 27-993 limits assumed): as the sequence (P36888 27-993 limits assumed) above
Target sequence in this assay (Q96SW2 whole entry partner): as the sequence (Q96SW2 whole entry partner) above

MV4-11 [21] = experiment: Inhibition of ERK phosphorylation in human MV4-11 cells incubated for 24 hrs by immunoblotting analysis; assay type: cell-based; conditions: dose 0.08-50 nM
[22] = Toxicity in NOD/SCID mouse xenografted with human MV4-11 cells assessed as weight loss at 6 mg/kg, ip administered once daily for 21 days; assay type: organism-based; conditions: in vivo, 504 h, time 21 day
[23] = target: T1, Protein cereblon/Receptor-type tyrosine-protein kinase FLT3; experiment: PROTAC activity at CRBN/FLT3 in human MV4-11 cells harboring FLT3-ITD mutation assessed as induction of FLT3 degradation by measuring maximal efficacy incubated for 24 hrs by immunoblotting analysis relative to control; assay type: cell-based
[24] = target: T1, Protein cereblon/Receptor-type tyrosine-protein kinase FLT3; experiment: PROTAC activity at CRBN/FLT3 in human MV4-11 cells harboring FLT3 ITD mutation assessed as induction of FLT3 degradation at 1 nM measured upto 12 hrs in presence of cycloheximide by immunoblotting analysis; assay type: cell-based
MV4-11 [25] = experiment: Induction of cell cycle arrest at G0/G1 phase in human MV4-11 cells assessed as sub-G0/G1 phase cells at 2 nM incubated for 24 hrs by PI staining based flow cytometric analysis relative to control; assay type: functional
MV4-11 [26] = experiment: Induction of apoptosis in human MV4-11 cells assessed as late apoptotic cells at 2 nM incubated for 48 hrs by Annexin V/7-AAD staining based flow cytometric analysis relative to control; assay type: functional
[27] = target: T1, Protein cereblon/Receptor-type tyrosine-protein kinase FLT3; experiment: PROTAC activity at CRBN/FLT3 in human MV4-11 cells harboring FLT3 ITD mutation assessed as induction of FLT3 degradation at 1 nM incubated for 6 hrs in presence of bafilomycin by immunoblotting analysis; assay type: cell-based
MV4-11 [28] = experiment: Induction of apoptosis in human MV4-11 cells assessed as increase in cleaved caspase 3 level at 2 to 10 nM incubated for 48 hrs by immunoblotting analysis; assay type: functional, cell-based; conditions: dose 2-10 nM
MV4-11 [29] = experiment: Induction of cell cycle arrest at G0/G1 phase in human MV4-11 cells assessed as G0/G1 phase cells at 0.4 nM incubated for 24 hrs by PI staining based flow cytometric analysis relative to control; assay type: functional
MV4-11 [30] = experiment: Induction of apoptosis in human MV4-11 cells assessed as increase in cleaved PARP level at 2 to 10 nM incubated for 48 hrs by immunoblotting analysis; assay type: functional, cell-based; conditions: dose 2-10 nM
MV4-11 [31] = experiment: Induction of cell cycle arrest at G0/G1 phase in human MV4-11 cells assessed as G2/M phase cells at 0.4 nM incubated for 24 hrs by PI staining based flow cytometric analysis relative to control; assay type: functional
MV4-11 [32] = experiment: Induction of apoptosis in human MV4-11 cells assessed as necrotic cells at 10 nM incubated for 48 hrs by Annexin V/7-AAD staining based flow cytometric analysis relative to control; assay type: functional
MV4-11 [33] = experiment: Induction of cell cycle arrest at G0/G1 phase in human MV4-11 cells assessed as G0/G1 phase cells at 2 nM incubated for 24 hrs by PI staining based flow cytometric analysis relative to control; assay type: functional
MV4-11 [34] = experiment: Induction of apoptosis in human MV4-11 cells assessed as early apoptotic cells at 2 nM incubated for 48 hrs by Annexin V/7-AAD staining based flow cytometric analysis relative to control; assay type: functional
[35] = target: T1, Protein cereblon/Receptor-type tyrosine-protein kinase FLT3; experiment: PROTAC activity at CRBN/FLT3 in human MV4-11 cells harboring FLT3-ITD mutation assessed as induction of FLT3 degradation incubated for 24 hrs by immunoblotting analysis; assay type: cell-based
MV4-11 [36] = experiment: Potency index, ratio of gilteritinib IC50 to test compound IC50 for antiproliferative activity against human MV4-11 cells assessed as inhibition of cell proliferation incubated for 72 hrs by CCK8 assay; assay type: functional

CCc1nc(C(N)=O)c(Nc2ccc(N3CCC(N4CCN(C(=O)COc5cccc6c5CN(C5CCC(=O)NC5=O)C6=O)CC4)CC3)c(OC)c2)nc1NC1CCOCC1 (configuration not stated)
IC50 (MV4-11 [1]): 1.5 nM
Activity [2]: inactive
inhibition (MV4-11 [3]): Dose-Dependent Effect
Activity (MV4-11 [4]): 3.4%
Activity [5]: inactive
Activity [6]: inactive
Activity (MV4-11 [7]): 33.1%
Activity (MV4-11 [8]): Active
Activity [9]: Active
Activity (MV4-11 [10]): 2.9%
Activity (MV4-11 [11]): 8.1%
Activity (MV4-11 [12]): Dose-Dependent Effect
Activity [13]: Active
inhibition (MV4-11 [14]): Dose-Dependent Effect
Activity (MV4-11 [15]): 2.4%
Activity [16]: inactive
Activity (MV4-11 [17]): 5.6%
Activity [18]: inactive
Activity [19]: inactive
Activity [20]: inactive
inhibition (MV4-11 [21]): Dose-Dependent Effect
Activity [22]: Non-Toxic
Emax [23]: 94.8%
Activity [24]: Active
Activity (MV4-11 [25]): 6.8%
Activity (MV4-11 [26]): 24.8%
Activity [27]: Active
Activity (MV4-11 [28]): Active
Activity (MV4-11 [29]): 79.8%
Activity (MV4-11 [30]): Active
Activity (MV4-11 [31]): 12.1%
Activity (MV4-11 [32]): 15.9%
Activity (MV4-11 [33]): 82.1%
Activity (MV4-11 [34]): 2.8%
Activity [35]: Dose-Dependent Effect
DC50 [35]: 0.64 nM
Ratio IC50 (MV4-11 [36]): 4.6
